pKi: −log10 of the molar value.
Tests used:
[1] = target: T1, Xanthine dehydrogenase/oxidase (Bos taurus, UniProt P80457); assay: Noncompetitive inhibition of bovine buttermilk xanthine oxidase by Lineweaver-burk plot analysis; conditions: read-out: Kis
[2] = target: T1, Xanthine dehydrogenase/oxidase; assay: Inhibition of bovine buttermilk xanthine oxidase by spectrophotometric analysis; conditions: cattle

T1 sequence (P80457 whole entry): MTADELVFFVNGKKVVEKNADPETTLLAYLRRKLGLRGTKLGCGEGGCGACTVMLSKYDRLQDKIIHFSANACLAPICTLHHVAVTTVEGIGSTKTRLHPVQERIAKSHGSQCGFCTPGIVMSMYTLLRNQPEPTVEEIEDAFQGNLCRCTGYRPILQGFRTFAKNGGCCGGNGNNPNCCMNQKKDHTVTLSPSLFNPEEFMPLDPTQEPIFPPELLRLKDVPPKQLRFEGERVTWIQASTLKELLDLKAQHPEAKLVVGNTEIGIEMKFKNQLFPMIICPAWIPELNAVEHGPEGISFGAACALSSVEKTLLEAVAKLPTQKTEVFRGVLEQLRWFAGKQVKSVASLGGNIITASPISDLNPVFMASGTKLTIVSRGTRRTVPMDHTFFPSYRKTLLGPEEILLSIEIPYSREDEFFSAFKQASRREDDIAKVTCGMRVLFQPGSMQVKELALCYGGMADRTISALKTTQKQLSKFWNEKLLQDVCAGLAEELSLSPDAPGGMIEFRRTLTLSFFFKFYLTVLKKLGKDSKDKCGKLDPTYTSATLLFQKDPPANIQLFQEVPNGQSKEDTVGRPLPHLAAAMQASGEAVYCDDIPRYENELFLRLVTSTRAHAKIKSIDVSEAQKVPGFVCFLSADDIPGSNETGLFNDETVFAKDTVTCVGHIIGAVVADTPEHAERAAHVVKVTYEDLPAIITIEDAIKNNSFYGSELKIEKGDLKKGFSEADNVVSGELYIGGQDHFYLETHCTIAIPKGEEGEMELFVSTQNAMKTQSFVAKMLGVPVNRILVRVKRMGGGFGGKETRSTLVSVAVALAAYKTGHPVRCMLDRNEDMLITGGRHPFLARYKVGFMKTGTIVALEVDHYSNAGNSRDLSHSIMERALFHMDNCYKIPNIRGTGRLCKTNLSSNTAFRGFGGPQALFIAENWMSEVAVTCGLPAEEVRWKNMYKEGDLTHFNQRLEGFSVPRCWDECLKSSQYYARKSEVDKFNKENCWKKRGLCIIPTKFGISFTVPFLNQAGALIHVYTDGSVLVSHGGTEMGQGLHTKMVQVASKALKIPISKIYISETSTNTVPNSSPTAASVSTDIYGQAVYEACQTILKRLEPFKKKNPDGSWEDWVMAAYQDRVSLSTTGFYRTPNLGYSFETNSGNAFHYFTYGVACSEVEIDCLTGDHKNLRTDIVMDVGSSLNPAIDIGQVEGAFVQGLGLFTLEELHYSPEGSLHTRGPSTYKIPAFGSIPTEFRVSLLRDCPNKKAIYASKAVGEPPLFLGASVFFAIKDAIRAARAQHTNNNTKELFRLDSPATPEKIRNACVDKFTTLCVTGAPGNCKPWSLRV

SMILES	pKi [1]	inhibition (INH) [2]
O=C1Cc2[nH]ccc2C(=O)N1	4.03	
CN1C(=O)Cc2[nH]ccc2C1=O	3.92	
O=C1Cc2[nH]ccc2C(=O)O1		Not Active
